Data from patent US20080096967A1, “Formulations for Injection of Catecholic Butanes, Including Ndga Compounds, Into Animals” (priority 2005, published 2008).

What was measured:
[1] = Stability of M4N formulations at 4° C. and on centrifugation; assay type: physicochemical
Description: All formulations withstand 4° C. for 24 hr and 5 min. centrifugation at 5000 rpm without forming visible precipitates. The formulation containing 50% PEG 300, 20% HP-β-CD, 12.5 mg/mL M4N stock solution withstands 4° C. for at least 4 months. Dilutions of the same stock made in 1:1 or 1:2 dilutions also withstand 4° C. for at least 4 months.

[2] = M4N stability in HP-β-CD/PEG 300 buffer solutions at 60° C. (RP-HPLC, pH); assay type: physicochemical; conditions: for M4N concentration (stability): 25% PEG300
Description: The stability of 10 mg/mL M4N (prepared in a ratio of 75:25 40% HP-β-CD: 40 mg/mL M4N PEG 300) in 15 mM buffer solutions was evaluated following incubation at 60° C.
2.0 g HP-β-CD was weighed into 5 mL volumetric flasks on an OHAUS Analytical Plus Balance. 1 mL of a 100 mM buffer solution was added to each flask. Each sample was q.s. to 5 mL with WFI.
750 μL 40% HP-β-CD buffered solution was placed in 1.5 mL polypropylene microtubes. […] After gentle inversion of the sample tubes, the pH of each solution was measured using a Orion, Model 420A pH meter. An initial aliquot was removed for RP-HPLC analysis. Test samples were then placed in a Precision 60° C. incubator. The M4N stability was evaluated by RP-HPLC. At each time point, the samples were centrifuged for 2 minutes at 13,000 rpm to pellet any solid M4N.

COc1ccc(C[C@@H](C)[C@@H](C)Cc2ccc(OC)c(OC)c2)cc1OC [Formulation M4N, meso-1,4-bis(3,4-dimethoxyphenyl)-2,3-dimethylbutane]
9.5 mg/mL: M4N concentration (stability) ([2]; 15 mM Borate, pH 11, 30% HP-β-CD, 10 days at 60° C.)
9.8 mg/mL: M4N concentration (stability) ([2]; 15 mM Borate, pH 11, 30% HP-β-CD, 6 days at 60° C.) | M4N concentration (stability) ([2]; 15 mM Phosphate, pH 8, 30% HP-β-CD, 10 days at 60° C.) | M4N concentration (stability) ([2]; 15 mM Phosphate, pH 9, 30% HP-β-CD, 10 days at 60° C.)
10.1 mg/mL: M4N concentration (stability) ([2]; 15 mM Acetate, pH 6, 30% HP-β-CD, 2 days at 60° C.) | M4N concentration (stability) ([2]; 15 mM Borate, pH 10, 30% HP-β-CD, 2 days at 60° C.) | M4N concentration (stability) ([2]; 15 mM Phosphate, pH 3, 30% HP-β-CD, 2 days at 60° C.) | M4N concentration (stability) ([2]; 15 mM Phosphate, pH 4, 30% HP-β-CD, 2 days at 60° C.) | M4N concentration (stability) ([2]; WFI, 30% HP-β-CD, 2 days at 60° C.)
9.9 mg/mL: M4N concentration (stability) ([2]; WFI, 30% HP-β-CD, 6 days at 60° C.)
10.2 mg/mL: M4N concentration (stability) ([2]; 15 mM Acetate, pH 5, 30% HP-β-CD, 2 days at 60° C.) | M4N concentration (stability) ([2]; 15 mM Phosphate, pH 9, 30% HP-β-CD, 2 days at 60° C.)
10.4 mg/mL: M4N concentration (stability) ([2]; 15 mM Phosphate, pH 8, 30% HP-β-CD, 2 days at 60° C.) | M4N concentration (stability) ([2]; 15 mM Phosphate, pH 9, 30% HP-β-CD, 0 days at 60° C.) | M4N concentration (stability) ([2]; WFI, 30% HP-β-CD, 0 days at 60° C.)
9.6 mg/mL: M4N concentration (stability) ([2]; 15 mM Acetate, pH 5, 30% HP-β-CD, 6 days at 60° C.) | M4N concentration (stability) ([2]; 15 mM Acetate, pH 5, 30% HP-β-CD, 14 days at 60° C.) | M4N concentration (stability) ([2]; 15 mM Acetate, pH 6, 30% HP-β-CD, 14 days at 60° C.) | M4N concentration (stability) ([2]; 15 mM Borate, pH 10, 30% HP-β-CD, 10 days at 60° C.) | M4N concentration (stability) ([2]; 15 mM Borate, pH 10, 30% HP-β-CD, 14 days at 60° C.) | M4N concentration (stability) ([2]; 15 mM Phosphate, pH 3, 30% HP-β-CD, 6 days at 60° C.) | M4N concentration (stability) ([2]; 15 mM Phosphate, pH 3, 30% HP-β-CD, 14 days at 60° C.) | M4N concentration (stability) ([2]; 15 mM Phosphate, pH 4, 30% HP-β-CD, 6 days at 60° C.) | M4N concentration (stability) ([2]; 15 mM Phosphate, pH 4, 30% HP-β-CD, 14 days at 60° C.) | M4N concentration (stability) ([2]; 15 mM Phosphate, pH 8, 30% HP-β-CD, 14 days at 60° C.) | M4N concentration (stability) ([2]; WFI, 30% HP-β-CD, 14 days at 60° C.)
10.5 mg/mL: M4N concentration (stability) ([2]; 15 mM Acetate, pH 6, 30% HP-β-CD, 0 days at 60° C.) | M4N concentration (stability) ([2]; 15 mM Borate, pH 10, 30% HP-β-CD, 0 days at 60° C.) | M4N concentration (stability) ([2]; 15 mM Borate, pH 11, 30% HP-β-CD, 0 days at 60° C.) | M4N concentration (stability) ([2]; 15 mM Phosphate, pH 4, 30% HP-β-CD, 0 days at 60° C.) | M4N concentration (stability) ([2]; 15 mM Phosphate, pH 7, 30% HP-β-CD, 0 days at 60° C.)
slight decrease: change in concentration of M4N solutions ([2]; 10 mg/mL M4N in HP-β-CD/PEG 300, 15 mM buffers, 14 day incubation at 60° C.)
9.4 mg/mL: M4N concentration (stability) ([2]; 15 mM Borate, pH 11, 30% HP-β-CD, 14 days at 60° C.)
10.6 mg/mL: M4N concentration (stability) ([2]; 15 mM Acetate, pH 5, 30% HP-β-CD, 0 days at 60° C.) | M4N concentration (stability) ([2]; 15 mM Phosphate, pH 8, 30% HP-β-CD, 0 days at 60° C.)
Little if any changes: apparent sample pH during the incubation period ([2]; 14 days at 60° C.)
10.3 mg/mL: M4N concentration (stability) ([2]; 15 mM Borate, pH 11, 30% HP-β-CD, 2 days at 60° C.) | M4N concentration (stability) ([2]; 15 mM Phosphate, pH 3, 30% HP-β-CD, 0 days at 60° C.) | M4N concentration (stability) ([2]; 15 mM Phosphate, pH 7, 30% HP-β-CD, 2 days at 60° C.)
9.7 mg/mL: M4N concentration (stability) ([2]; 15 mM Acetate, pH 5, 30% HP-β-CD, 10 days at 60° C.) | M4N concentration (stability) ([2]; 15 mM Acetate, pH 6, 30% HP-β-CD, 6 days at 60° C.) | M4N concentration (stability) ([2]; 15 mM Acetate, pH 6, 30% HP-β-CD, 10 days at 60° C.) | M4N concentration (stability) ([2]; 15 mM Borate, pH 10, 30% HP-β-CD, 6 days at 60° C.) | M4N concentration (stability) ([2]; 15 mM Phosphate, pH 3, 30% HP-β-CD, 10 days at 60° C.) | M4N concentration (stability) ([2]; 15 mM Phosphate, pH 4, 30% HP-β-CD, 10 days at 60° C.) | M4N concentration (stability) ([2]; 15 mM Phosphate, pH 7, 30% HP-β-CD, 6 days at 60° C.) | M4N concentration (stability) ([2]; 15 mM Phosphate, pH 7, 30% HP-β-CD, 10 days at 60° C.) | M4N concentration (stability) ([2]; 15 mM Phosphate, pH 7, 30% HP-β-CD, 14 days at 60° C.) | M4N concentration (stability) ([2]; 15 mM Phosphate, pH 8, 30% HP-β-CD, 6 days at 60° C.) | M4N concentration (stability) ([2]; 15 mM Phosphate, pH 9, 30% HP-β-CD, 6 days at 60° C.) | M4N concentration (stability) ([2]; 15 mM Phosphate, pH 9, 30% HP-β-CD, 14 days at 60° C.) | M4N concentration (stability) ([2]; WFI, 30% HP-β-CD, 10 days at 60° C.)
less than 0.1%: M4N impurities, share of total peak area ([2]; 14 day incubation at 60° C.)
at least 4 months: withstand 4° C. ([1]; 1:1 or 1:2 dilutions of the 50% PEG 300, 20% HP-β-CD, 12.5 mg/mL M4N stock) | withstands 4° C. ([1]; 50% PEG 300, 20% HP-β-CD, 12.5 mg/mL M4N stock solution)
